Consider five molecules from article PMC11345829, “Discovery of Potent Isoquinolinequinone N-Oxides to Overcome Cancer Multidrug Resistance” (Journal of Medicinal Chemistry, 2024).

Read-outs that look alike come from different tables or passages of the source.

For one assay, the system named is DLD1-TxR. Put plainly: SRB cell growth inhibition assay. The assay is classed as cell-based, human. Particulars: for GI50: Homo sapiens, SRB assay, 48 h, colorectal cancer MDR, mean ± SEM. The protocol:
(§1) Two distinct pairs of counterpart drug-sensitive and MDR human tumor cell lines were used, namely the non-small lung cancer (NSCLC) NCI-H460 (same cell line as in the NCI screen) and its MDR counterpart cell line NCI-H460/R and the colorectal cancer DLD1 and its MDR counterpart cell line DLD1-TxR (Table 3). The screening was performed using the SRB assay, and the GI50 for each compound was determined by interpolation on the attained concentration−response curves and compared with NCI60 screening data (SI, Figures S62−S63; Table S21).
(§2) Two pairs of drug-sensitive and multidrug-resistant (MDR) cell lines from human nonsmall cell lung cancer (NSCLC), NCI-H460 and NCI-H460/R, and colorectal cancer, DLD1 and DLD1-TxR, kindly provided by Dr M. Pešić (Belgrade, Serbia), were used to evaluate the growth inhibition potential of the compounds 1, 2, 3, 4, 5, 20, 23, 24, an 25.[76],[77] Additionally, growth inhibition assays were performed with compound 25 on two other NSCLC cell lines, A549 and NCI-H322, obtained from the American Type Culture Collection (ATCC) and the European Collection of Authenticated Cell Cultures, respectively. The A549 cell line was maintained in Dulbecco’s Modified Eagle Medium (DMEM) supplemented with 4.5 g/L Glucose with UltraGlutamine with sodium pyruvate (Lonza, Basel Stücki, Switzerland), enriched with 10% fetal bovine serum (FBS; Biowest, Nuaillé, France). The lung fibroblast MRC-5 cell line and the remaining NSCLC and colorectal cancer cell lines were cultured in Roswell Park Memorial Institute (RPMI) 1640 (with stable glutamine and 25 mM HEPES) medium (Biowest), supplemented with 10% fetal bovine serum. […] For the sulforhodamine B (SRB) and 3D cell culture assays, the media were supplemented with 5% FBS. The remaining experiments were performed with medium supplemented with 10% FBS.
(§3) Cells were seeded at a previously determined optimal cell concentration (5.0 × 10^4 cells/mL for NSCLC cells and the nontumorigenic MRC-5 cell line and 1.0 × 10^5 cells/mL for colorectal cancer cells) and incubated at 37 °C for 24 h. […] The SRB assay was performed as previously described.[78],[79] Briefly, after fixing cells with 10% (w/v) ice-cold trichloroacetic acid (Merck Life Science), the proteins were stained with 0.4% of SRB (Merck Life Science) in acetic acid (Merck Life Science). Following washing steps in acetic acid, the bound dye was solubilized with 10 mM Tris base solution (Merck Life Science). Absorbance was measured at 510 nm in a multiplate reader (Synergy Mx, Biotek Instruments Inc., Winooski, Vermont, USA) using the Gen5 software (Biotek Instruments Inc.).

For another assay, the system named is DLD1. As to the kind of experiment: SRB cell growth inhibition assay. Conditions: Homo sapiens, DLD-1, 48 h, colorectal cancer sensitive, mean ± SEM. The assay is classed as cell-based.
Excerpt: as §1, with “Taking into consideration the promising results of preliminary NCI screening, nine compounds (1, 2, 3, 4, 5, 20, 23, 24, 25) were selected for further screening in two counterpart pairs of sensitive and MDR cell lines. […] Two” for “Two”
as §2, §3

A further assay relates to NCI-H460/R spheroids. Put plainly: Cell Titer-Glo 3D spheroid viability assay. Format: cell-based, human. Particulars: 48 h; 25 at 0.35 and 0.7 μM; etoposide 2 μM.
The subject of assay [1] is NCI60 tumor cell line panel. Also noted: method as in PMID 31894828. Conditions: against 53 human tumor cell lines; cited from earlier work.
The subject of assay [2] is NCI-H460. Put plainly: NCI60 five-dose GI50 (NCI data). The assay is classed as cell-based. Particulars: Homo sapiens, NCI data provided for comparison, read-out: NSCLC NCI-H460 GI50 (NCI). The source says:
(§4) The concentration−response curve generated enables the determination of three criteria, GI50 (drug concentration at which 50% of cell growth is inhibited), total growth inhibition (TGI) and LC50 (drug concentration at which 50% of tumor cells are killed) which can be used to compare effectiveness against any compound tested in the screen since its inception.
(§5) S2.1 NCI Screening Assay Experimental details
(§6) NCI Screening Assay Experimental: Cancer cell growth assays (NCI60 screening) 5,6 One-dose study: Tested compounds were initially solubilised in DMSO, diluted into RPMI 1640 and 5% fetal bovine serum/L-glutamine, and added to 96-well plates containing cell lines previously cultured for 24 h. After 48 h incubation, the media were removed, and the cells were fixed and stained with sulforhodamine B to determine overall percent growth/ total protein content. Unbound dye was removed with five washes of 1% acetic acid, and the plates were allowed to air dry. The dye was then resolubilised in Tris buffer, and the colorimetric absorbance was measured (515 nm). Growth inhibition was measured relative to the response generated from proliferating cells cultured under identical conditions for 48 h. Data from one-dose experiments pertains to the percentage growth at […]
(§7) Five-dose study: Serial 5 × 10-fold dilution from an initial DMSO stock solution was performed, prior to incubation at each individual concentration (10 nM, 100 nM, 1 μM, 10 μM and 100 μM). Using seven absorbance measurements (time zero (Tz), control growth (C), and test growth in the presence of drug at the five concentration levels (Ti)), the percentage growth was calculated at each of the drug concentrations levels. Percentage growth inhibition was calculated as: [(Ti − Tz)/(C − Tz)] × 100 for concentrations for which Ti ≥ Tz, [(Ti − Tz)/Tz] × 100 for concentrations for which Ti < Tz. Three dose response parameters were calculated for each experimental agent. […]
(§8) was calculated from [(Ti − Tz)/(C − Tz)] × 100 = 50, which is the drug concentration resulting in a 50% reduction in the net protein increase (as measured by sulforhodamine B staining) in control cells during the drug incubation. The drug concentration resulting in total growth inhibition (TGI) was calculated from Ti = Tz. The LC50 (concentration of drug resulting in a 50% reduction in the measured protein at the end of the drug treatment as compared to that at the beginning) indicating a net loss of cells following treatment was calculated from [(Ti − Tz)/Tz] × 100 = −50. Values were calculated for each of these three parameters if the level of activity was reached; however, if the effect was not reached or was exceeded, the value for that parameter was expressed as greater or less than the maximum or minimum concentration tested.

For a further assay, the system named is NCI-H460/R. As to the kind of experiment: SRB cell growth inhibition assay. The assay is classed as cell-based, human. Here is the method:
Two distinct pairs of counterpart drug-sensitive and MDR human tumor cell lines were used, namely the non-small lung cancer (NSCLC) NCI-H460 (same cell line as in the NCI screen) and its MDR counterpart cell line NCI-[…] and the colorectal cancer DLD1 and its MDR counterpart cell line DLD1-TxR (Table 3). The screening was performed using the SRB assay, and the GI50 for each compound was determined by interpolation on the attained concentration-response curves and compared with NCI60 screening data (SI, Figures S62-S63; Table S21). Two pairs of drug-sensitive and multidrug-resistant (MDR) cell lines from human nonsmall cell lung cancer (NSCLC), NCI-H460 and NCI-[…], and colorectal cancer, DLD1 and DLD1-TxR, kindly provided by Dr M. […] The A549 cell line was maintained in Dulbecco's Modified Eagle Medium (DMEM) supplemented with 4.5 g/L Glucose with UltraGlutamine with sodium pyruvate (Lonza, Basel Stücki, Switzerland), enriched with 10% fetal bovine serum (FBS; Biowest, Nuaillé, France). […] For the sulforhodamine B (SRB) and 3D cell culture assays, the media were supplemented with 5% FBS. The remaining experiments were performed with medium supplemented with 10% FBS. […] The SRB assay was performed as previously described.[78],[79] Briefly, after fixing cells with 10% (w/v) ice-cold trichloroacetic acid (Merck Life Science), the proteins were stained with 0.4% of SRB (Merck Life Science) in acetic acid (Merck Life Science). Following washing steps in acetic acid, the bound dye was solubilized with 10 mM Tris base solution (Merck Life Science). Absorbance was measured at 510 nm in a multiplate reader (Synergy Mx, Biotek Instruments Inc., Winooski, Vermont, USA) using the Gen5 software (Biotek Instruments Inc.).

For assay [3], the system named is NCI-H460. As to the kind of experiment: SRB cell growth inhibition assay. Format: cell-based. Conditions: Homo sapiens, 48 h, NSCLC sensitive, mean ± SEM.
Excerpt: as §1, with “Taking into consideration the promising results of preliminary NCI screening, nine compounds (1, 2, 3, 4, 5, 20, 23, 24, 25) were selected for further screening in two counterpart pairs of sensitive and MDR cell lines. […] Two” for “Two”
as §2, §3

The next assay has as its system OVCAR-8. As to the kind of experiment: NCI60 five-dose GI50. Format: cell-based. Particulars: Homo sapiens, ovarian.
Excerpt: as §4, §5
as §6, with “nm).” for “nm). Growth inhibition was measured relative to the response generated from proliferating cells cultured under identical conditions for 48 h. Data from one-dose experiments pertains to the percentage growth at”
as §7, §8

Assay [4] relates to NCI60 tumor cell line panel. Put plainly: NCI60 five-dose screen, mean over panel. The assay is classed as cell-based, human. Conditions: five dose.
Excerpt: as §4, §5, §6, §7, §8

Assay [5] has as its system NCI60 tumor cell line panel. As to the kind of experiment: NCI60 one-dose screen (10 μM), mean growth. Particulars: 48 h, one dose 10 μM, mean cell growth of 60 tumor cell lines; for activity at 10 µM: Homo sapiens. Format: cell-based, human. Here is the method: as §5
as §6, with “h.” for “h. Data from one-dose experiments pertains to the percentage growth at”

The subject of another assay is NCI-ADR/RES. As to the kind of experiment: NCI60 five-dose GI50. Format: cell-based. Conditions: Homo sapiens, MDR ovarian.
Excerpt: as §4, §5, §6, §7, §8

A further assay relates to LOX-IMVI. Put plainly: NCI60 five-dose GI50. Format: cell-based. Particulars: Homo sapiens, melanoma.
Excerpt: as §4, §5, §6, §7, §8

Another assay concerns OVCAR-3. As to the kind of experiment: NCI60 five-dose GI50. Particulars: Homo sapiens, ovarian. The assay is classed as cell-based.
Excerpt: as §4, §5, §6, §7, §8

The next assay relates to K-562. Put plainly: NCI60 five-dose GI50. Format: cell-based. Particulars: Homo sapiens, K562, five dose.
Excerpt: as §4, §5, §6, §7, §8

A further assay has as its system UACC-62. As to the kind of experiment: NCI60 five-dose GI50. Conditions: Homo sapiens, melanoma. The assay is classed as cell-based.
Excerpt: as §4, §5, §6, §7, §8

The next assay concerns COLO-205. As to the kind of experiment: NCI60 five-dose GI50. Format: cell-based. Particulars: Homo sapiens, colon.
Excerpt: as §4, §5, §6, §7, §8

Another assay deals with MCF-7. Put plainly: NCI60 five-dose GI50. The assay is classed as cell-based. Particulars: Homo sapiens, MCF7, breast.
Excerpt: as §4, §5, §6, §7, §8

[6] abbreviates: Homo sapiens, across 57-60 cell lines (number given per compound), read-out: Mean of GI50 as Log 10 Concentration (SD) (converted).
Setting [7] is: mean over 52 human tumor cell lines common to all analogues, read-out: mean GI50.

Experimental for NCI-H460/R spheroids: Results are presented as the % of luciferase luminescence relative to the “blank” cells (medium).
Spheroid formation was conducted in 12-series agarose 3D Petri Dish micromolds (MicroTissues Technology, MicroTissues Inc., Sigma-Aldrich). The agarose micromolds were prepared using 1% agarose in a 0.9% NaCl solution and then placed in 12-well plates and equilibrated with RPMI supplemented with 10% FBS for at least 2 h before cell seeding. Cell suspensions corresponding to 500 cells per spheroid of the NSCLC cell lines (NCI-H460 and NCI-H460/R), and 1000 cells per spheroid of the colorectal cancer cell lines (DLD1 and DLD1-TxR) were seeded in the corresponding micromolds. […] Spheroid formation was monitored with the Leica DMi1 microscope. […] At the end of the treatment, images from at least 8 different spheroids per condition were captured on the Leica Dmi1 microscope, and posteriorly analyzed with the automated open-source software AnaSP.[82] Spheroid parameters, such as equivalent diameter, circularity, and compactness, were calculated.
Spheroid viability was determined through the luminescence-based Cell Titer-Glo 3D cell viability assay (Promega). […] The plate was then incubated in the dark for 5 min with agitation and allowed to rest for 25 min before luminescence measurement. Luminescence was quantified using the microplate reader Synergy MX coupled with the GEN5 software. […]

On to `CC(=O)O[C@H]1C(=O)[C@@]2(C)[C@H]([C@H](OC(=O)c3ccccc3)[C@]3(O)C[C@H](OC(=O)[C@H](O)[C@@H](NC(=O)c4ccccc4)c4ccccc4)C(C)=C1C3(C)C)[C@]1(OC(C)=O)CO[C@@H]1C[C@@H]2O` [paclitaxel, reference compound], for which the GI50 is 0.97 ± 0.21 µM in the assay on DLD1-TxR and 0.02 ± 0.003 µM with DLD1.
With `COc1cc([C@@H]2c3cc4c(cc3[C@@H](O[C@@H]3O[C@@H]5CO[C@@H](C)O[C@H]5[C@H](O)[C@H]3O)[C@H]3COC(=O)[C@H]23)OCO4)cc(OC)c1O` [etoposide, reference compound], the “viability of NCI-H460/R spheroids” value with NCI-H460/R spheroids is “did not significantly affect the viability of the spheroids”.
In the case of `COC(=O)c1c2c(c(C)[n+]([O-])c1C)C(=O)C=CC2=O` [Compound 3], the GI50 was 1.75 µM in [1]; 4.8 ± 0.07 µM with DLD1-TxR; 0.731 µM with NCI-H460 [2]; 4.28 ± 1.08 µM in the assay with NCI-H460/R (Homo sapiens, NCI-H460, SRB assay, 48 h, NSCLC MDR, mean ± SEM); 6.62 ± 0.35 µM in the assay on DLD1; 8.43 ± 1.41 µM in the assay with NCI-H460 [3]. Also, the “selectivity ratio colorectal cancer” value in the assay on DLD1-TxR (GI50 sensitive DLD1 / GI50 MDR DLD1-TxR) is 1.4. The “selectivity ratio NSCLC” value in the assay with NCI-H460/R (GI50 sensitive NCI-H460 / GI50 MDR NCI-H460/R) turned out to be 2.
Turning to `COC(=O)c1c2c(c(C)[n+]([O-])c1C)C(=O)C(NCc1ccc(F)c(F)c1)=CC2=O` [Compound 16], the GI50 was 1.96 µM in the assay on OVCAR-8; 1.78 µM in [4] (setting [6]); 1.91 µM in assay [4] (setting [7]); 2.3 µM in the assay with NCI-ADR/RES; 1.98 µM in the assay on LOX-IMVI; 0.333 µM with OVCAR-3. In addition, the GI50 stood at 2.23 µM with K-562 (leukemia), 1.53 µM with UACC-62, 0.673 µM in the assay with COLO-205 and 1.48 µM in the assay with MCF-7. Also, in [5], the activity at 10 µM came to 11%.
As to `COC(=O)c1c2c(c(C)[n+]([O-])c1C)C(=O)C=C(NCc1ccc(F)c(Cl)c1)C2=O` [Compound 19], the GI50 in the assay with OVCAR-8 is 0.249 µM; in [4] (setting [6]) it was 0.29 µM; in [4] (setting [7]), 0.56 µM; with NCI-ADR/RES, 0.321 µM; in the assay on LOX-IMVI, 0.031 µM; in the assay with OVCAR-3 it was 0.199 µM. Further, the GI50 with K-562 was less than 0.15 µM; in the assay with K-562 (leukemia) it was 0.051 µM; with UACC-62, 0.041 µM; in the assay on COLO-205 it was 0.211 µM; in the assay on MCF-7 it was 0.229 µM. Also, the activity at 10 µM in assay [5] is -47%. The “mean growth (%, 10 μM)” value in [5] was -47%.
